Measurements published in patent publication US12252524B2, “GIP/GLP1 co-agonist compounds” (Eli Lilly and Company, priority 2018, dated 2025).
Like-named read-outs stand apart in the source and are kept apart here. Numbered stars: 1 amine (or outer) side, 2 acyl side, 3 side chain; on linkers, the order of the positions; unused ones are H or OH. Square brackets hold non-standard residues; d marks the D form. Side chains are listed from the residue outwards. Peptide text beside a SMILES is read from it. * marks the point of attachment. C20 diacid = O=C(O)CCCCCCCCCCCCCCCCCCC(=O)*; γGlu = O=C(O)[C@H](CCC(=O)[*:2])N[*:1]; αMeL = CC(C)C[C@](C)(N)C(=O)O; Orn = NCCC[C@H](N)C(=O)O; AEEA = NCCOCCOCC(=O)O; Aib = CC(C)(N)C(=O)O

Legend:
human Gcg receptor = target: T1, human Gcg receptor (Homo sapiens, UniProt P47871); assay: [125I]-Glucagon binding (SPA), human Gcg receptor; conditions: read-out: hGLcgR Ki, nM (SEM, n)
T1 construct: expressed in transfected cells; crude membranes
Method in brief: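 Scintillation counts are taken after membranes and WGA beads incubate and settle for 12 hours at room temperature. Buffer is 25 mM HEPES, pH 7.4, with CaCl2, MgCl2, bacitracin and Tween-20. Ki values, from four-parameter IC50 fits, are geometric means over independent days.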

[1] = target: T2, gastric inhibitory peptide receptor (GIPR) (Homo sapiens, UniProt P48546); assay: cAMP pharmacological functional assay in presence of casein, hGIPR; type: cell-based; conditions: HEK293 cells expressing hGIPR, 0.1% Casein, geometric mean; read-out: hGIPR cAMP Rel EC50 nM (SEM, n)
T2 sequence (P48546 22-466): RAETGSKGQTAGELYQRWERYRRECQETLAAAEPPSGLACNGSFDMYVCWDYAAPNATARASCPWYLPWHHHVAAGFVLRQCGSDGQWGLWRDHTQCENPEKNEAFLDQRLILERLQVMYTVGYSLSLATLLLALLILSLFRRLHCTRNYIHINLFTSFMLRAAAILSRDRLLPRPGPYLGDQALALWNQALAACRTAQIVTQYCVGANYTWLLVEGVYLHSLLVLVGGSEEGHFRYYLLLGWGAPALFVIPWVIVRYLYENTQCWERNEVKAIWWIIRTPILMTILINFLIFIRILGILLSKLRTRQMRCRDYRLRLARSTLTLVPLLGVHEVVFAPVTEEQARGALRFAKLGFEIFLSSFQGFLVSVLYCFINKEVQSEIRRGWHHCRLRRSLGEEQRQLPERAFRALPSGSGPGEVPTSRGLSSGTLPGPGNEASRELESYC

human GLP-1R [2] = target: T3, human GLP-1R (Homo sapiens, UniProt P43220); assay: GLP-1R CHO cell β-arrestin recruitment assay; type: cell-based; parameters: host or cells: CHO-K1 PathHunter cells, assay-ready frozen; conditions: for EC50: CHO-K1 cells; for hGLP1R B-Arrestin2 % Top: normalized to GLP-1 maximum control
From the text: Activated G-protein coupled receptors can interact with the β-arrestin family of signalling proteins. […] CHO-K1 cells expressing Pro-Link-tagged Human GLP-1R and enzyme-acceptor-tagged β-arrestin-2 may be obtained from DiscoveRx and prepared as assay-ready frozen cells. Test peptides are solubilized in DMSO and serial dilutions are perfomed using the Echo acoustic dispenser (LabCyte). Assay media is the PathHunter Cell Assay Buffer (DiscoveRx) containing 0.1% w/v hydrolyzed Casein (Sigma). […] Plates are incubated for 90 minutes in a 37′C/5% C02 incubator and 10 ul of PathHunter detection reagent is added (DiscoveRx) and plates are incubated at room temperature for 60 minutes. Luminescence signal is measured. Peptide concentration-response curves fit to a four-parameter logistic model to calculate potency as an EC50.

human GIP receptor = target: T4, human GIP receptor (Homo sapiens, UniProt P48546); assay: [125I]-GIP binding (SPA), human GIP receptor; conditions: read-out: hGIPR Ki, nM (SEM, n)
T4 construct: expressed in transfected cells; crude membranes
T4 sequence (P48546 22-466): T2 sequence (P48546 22-466)

human GLP-1R [3] = target: T3, human GLP-1R; assay: [125I]-GLP-1 binding (SPA), human GLP-1 receptor; parameters: expressed in transfected cells; crude membranes; conditions: read-out: hGLP1R Ki, (nM) (SEM, n)
Method in brief: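 Assay buffer: HEPES 25 mM, pH 7.4, CaCl2 2.5 mM, MgCl2 1 mM, with EDTA-free protease inhibitors. Receptor came from crude cell membranes prepared by homogenization and centrifugation at 4° C. IC50s came from four-parameter fits (maximum, minimum, IC50, Hill slope) and were expressed as Ki geometric means with SEM.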

[4] = target: human GLP-1 receptor (GLP-1R) (Homo sapiens, UniProt P43220); assay: cAMP pharmacological functional assay in presence of casein, hGLP-1R; type: cell-based; conditions: HEK293 cells expressing hGLP-1R, 0.1% Casein, geometric mean; read-out: hGLP1R cAMP Rel EC50 nM (SEM, n)
[5] = PathHunter β-arrestin-2 recruitment, 0.1% casein, read-out: hGLP1R B-Arrestin2 Rel EC50 uM (SEM, n)

T1 sequence (P47871 26-477): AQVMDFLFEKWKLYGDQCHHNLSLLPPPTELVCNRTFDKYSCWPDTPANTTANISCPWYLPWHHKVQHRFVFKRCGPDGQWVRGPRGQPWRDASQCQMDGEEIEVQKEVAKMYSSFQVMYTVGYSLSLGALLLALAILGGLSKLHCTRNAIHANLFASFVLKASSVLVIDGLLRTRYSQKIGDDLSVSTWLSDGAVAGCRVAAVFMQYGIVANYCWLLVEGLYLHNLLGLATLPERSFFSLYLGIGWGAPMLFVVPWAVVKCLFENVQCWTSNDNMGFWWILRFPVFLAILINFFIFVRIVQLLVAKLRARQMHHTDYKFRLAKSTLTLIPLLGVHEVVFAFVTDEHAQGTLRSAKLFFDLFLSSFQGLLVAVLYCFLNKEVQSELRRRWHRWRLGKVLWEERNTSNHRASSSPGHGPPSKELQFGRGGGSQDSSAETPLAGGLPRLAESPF
T3 sequence (P43220 24-463): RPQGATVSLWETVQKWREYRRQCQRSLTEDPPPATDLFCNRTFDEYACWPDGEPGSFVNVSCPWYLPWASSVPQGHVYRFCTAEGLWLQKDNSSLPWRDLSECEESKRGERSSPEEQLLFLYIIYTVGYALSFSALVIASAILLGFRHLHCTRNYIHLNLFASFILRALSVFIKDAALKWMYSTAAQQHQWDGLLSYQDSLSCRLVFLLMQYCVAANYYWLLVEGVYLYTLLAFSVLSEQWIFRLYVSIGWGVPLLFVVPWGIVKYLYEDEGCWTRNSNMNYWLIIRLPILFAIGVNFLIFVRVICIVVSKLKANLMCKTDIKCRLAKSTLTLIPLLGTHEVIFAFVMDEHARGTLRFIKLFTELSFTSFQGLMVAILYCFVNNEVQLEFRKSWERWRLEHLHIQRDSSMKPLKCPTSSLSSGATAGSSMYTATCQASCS
human GLP-1 receptor (GLP-1R), sequence (P43220 24-463): as above

SMILES	Ki (human Gcg receptor)	EC50 [1]	EC50 (human GLP-1R [2]; [5])	hGLP1R B-Arrestin2 % Top (human GLP-1R [2])	Ki (human GIP receptor)	Ki (human GLP-1R [3])	EC50 [4]	EC50 (human GLP-1R [2]; 0.1% w/v hydrolyzed Casein, read-out: hGLP1R B-Arrestin2 Rel EC50)
CC[C@H](C)[C@H](NC(=O)[C@H](CC(C)C)NC(=O)[C@H](Cc1ccc(O)cc1)NC(=O)[C@H](CCC(=O)O)NC(=O)[C@@H](NC(=O)[C@H](Cc1ccccc1)NC(=O)[C@H](CCC(=O)O)NC(=O)C(C)(C)NC(=O)[C@H](CCC(N)=O)NC(=O)[C@H](C)NC(=O)[C@H](CCCCNC(=O)COCCOCCNC(=O)COCCOCCNC(=O)CC[C@H](NC(=O)CCCCCCCCCCCCCCCCCCC(=O)O)C(=O)O)NC(=O)[C@H](CCCCN)NC(=O)[C@H](CC(=O)O)NC(=O)[C@H](CC(C)C)NC(=O)[C@](C)(CC(C)C)NC(=O)[C@@H](NC(=O)[C@H](CO)NC(=O)[C@H](Cc1ccc(O)cc1)NC(=O)[C@H](CC(=O)O)NC(=O)[C@H](CO)NC(=O)[C@@H](NC(=O)[C@H](Cc1ccccc1)NC(=O)[C@@H](NC(=O)CNC(=O)[C@H](CCC(=O)O)NC(=O)C(C)(C)NC(=O)[C@@H](N)Cc1ccccc1)[C@@H](C)O)[C@@H](C)O)[C@@H](C)CC)[C@@H](C)CC)C(=O)N[C@@H](C)C(=O)NCC(=O)NCC(=O)N1CCC[C@H]1C(=O)N[C@@H](CO)C(=O)N[C@@H](CO)C(=O)NCC(=O)N[C@@H](C)C(=O)N1CCC[C@H]1C(=O)N1CCC[C@H]1C(=O)N1CCC[C@H]1C(=O)N[C@@H](CO)C(N)=O [Example 338] (H-F[Aib]EGTFTSDYSI[αMeL]LDKK([AEEA-AEEA-γGlu-C20 diacid])AQ[Aib]EFIEYLIAGGPSSGAPPPS-NH2)	> 1060 nM	0.0472 nM	0.0189 µM	47%	0.0831 nM	3.23 nM	0.174 nM	
CC[C@H](C)[C@H](NC(=O)[C@H](CC(C)C)NC(=O)[C@H](Cc1ccc(O)cc1)NC(=O)[C@@H](CCC(=O)O)NC(=O)[C@@H](NC(=O)[C@H](Cc1ccccc1)NC(=O)[C@H](C)NC(=O)C(C)(C)NC(=O)[C@H](CCC(N)=O)NC(=O)[C@H](C)NC(=O)[C@H](CCCCNC(=O)COCCOCCNC(=O)COCCOCCNC(=O)CC[C@H](NC(=O)CCCCCCCCCCCCCCCCCCC(=O)O)C(=O)O)NC(=O)[C@H](CCCCN)NC(=O)[C@H](CC(=O)O)NC(=O)[C@H](CC(C)C)NC(=O)[C@](C)(CC(C)C)NC(=O)[C@@H](NC(=O)[C@H](CO)NC(=O)[C@H](Cc1ccc(O)cc1)NC(=O)[C@H](CC(=O)O)NC(=O)[C@H](CO)NC(=O)[C@@H](NC(=O)[C@H](Cc1ccccc1)NC(=O)[C@@H](NC(=O)CNC(=O)[C@H](CCC(=O)O)NC(=O)C(C)(C)NC(=O)[C@H](N)Cc1ccc(O)cc1)[C@@H](C)O)[C@@H](C)O)[C@@H](C)CC)[C@@H](C)CC)C(=O)N[C@@H](CCC(=O)O)C(=O)NCC(=O)NCC(=O)N1CCC[C@H]1C(=O)N[C@@H](CO)C(=O)N[C@@H](CO)C(=O)NCC(=O)N[C@@H](C)C(=O)N1CCC[C@H]1C(=O)N1CCC[C@H]1C(=O)N1CCC[C@H]1C(=O)N[C@@H](CO)C(N)=O [Example 356]	> 1010 nM	0.386 nM	> 10.5 µM		0.35 nM	10.3 nM	0.506 nM	> 10.5 µM
CC[C@H](C)[C@H](NC(=O)[C@H](CC(C)C)NC(=O)[C@H](Cc1ccc(O)cc1)NC(=O)[C@@H](CCC(=O)O)NC(=O)[C@@H](NC(=O)[C@H](Cc1ccccc1)NC(=O)[C@H](C)NC(=O)C(C)(C)NC(=O)[C@H](CCC(N)=O)NC(=O)[C@H](C)NC(=O)[C@H](CCCCNC(=O)COCCOCCNC(=O)COCCOCCNC(=O)CC[C@H](NC(=O)CCCCCCCCCCCCCCCCCCC(=O)O)C(=O)O)NC(=O)[C@H](CCCN)NC(=O)[C@H](CC(=O)O)NC(=O)[C@H](CC(C)C)NC(=O)[C@](C)(CC(C)C)NC(=O)[C@@H](NC(=O)[C@H](CO)NC(=O)[C@H](Cc1ccc(O)cc1)NC(=O)[C@H](CC(=O)O)NC(=O)[C@H](CO)NC(=O)[C@@H](NC(=O)[C@H](Cc1ccccc1)NC(=O)[C@@H](NC(=O)CNC(=O)[C@H](CCC(=O)O)NC(=O)C(C)(C)NC(=O)[C@H](N)Cc1ccc(O)cc1)[C@@H](C)O)[C@@H](C)O)[C@@H](C)CC)[C@@H](C)CC)C(=O)N[C@@H](CCC(=O)O)C(=O)NCC(=O)NCC(=O)N1CCC[C@H]1C(=O)N[C@@H](CO)C(=O)N[C@@H](CO)C(=O)NCC(=O)N[C@@H](C)C(=O)N1CCC[C@H]1C(=O)N1CCC[C@H]1C(=O)N1CCC[C@H]1C(=O)N[C@@H](CO)C(N)=O [Example 357]	> 977 nM	0.384 nM	0.118 µM	18.2%	0.316 nM	7.02 nM	0.181 nM	
CC[C@H](C)[C@H](NC(=O)[C@H](CC(C)C)NC(=O)[C@H](Cc1ccc(O)cc1)NC(=O)[C@H](CCC(=O)O)NC(=O)[C@@H](NC(=O)[C@H](Cc1ccccc1)NC(=O)[C@H](C)NC(=O)C(C)(C)NC(=O)[C@H](CCC(N)=O)NC(=O)[C@H](C)NC(=O)[C@H](CCCCNC(=O)COCCOCCNC(=O)COCCOCCNC(=O)CC[C@H](NC(=O)CCCCCCCCCCCCCCCCCCC(=O)O)C(=O)O)NC(=O)[C@H](CCCN)NC(=O)[C@H](CC(=O)O)NC(=O)[C@H](CC(C)C)NC(=O)[C@](C)(CC(C)C)NC(=O)[C@@H](NC(=O)[C@H](CO)NC(=O)[C@H](Cc1ccc(O)cc1)NC(=O)[C@H](CC(=O)O)NC(=O)[C@H](CO)NC(=O)[C@@H](NC(=O)[C@H](Cc1ccccc1)NC(=O)[C@@H](NC(=O)CNC(=O)[C@H](CCC(=O)O)NC(=O)C(C)(C)NC(=O)[C@H](N)Cc1ccc(O)cc1)[C@@H](C)O)[C@@H](C)O)[C@@H](C)CC)C(C)C)C(=O)N[C@@H](CCC(=O)O)C(=O)NCC(=O)NCC(=O)N1CCC[C@H]1C(=O)N[C@@H](CO)C(=O)N[C@@H](CO)C(=O)NCC(=O)N[C@@H](C)C(=O)N1CCC[C@H]1C(=O)N1CCC[C@H]1C(=O)N1CCC[C@H]1C(=O)N[C@@H](CO)C(N)=O [Example 360] (H-[dY][Aib]EGTFTSDYSI[αMeL]LD[Orn]K([AEEA-AEEA-γGlu-C20 diacid])AQ[Aib]AFVEYLIEGGPSSGAPPPS-NH2)	485 nM	0.197 nM	0.0395 µM	25.8%	0.128 nM	1.74 nM	0.145 nM	
CC[C@H](C)[C@H](NC(=O)[C@H](CC(C)C)NC(=O)[C@H](Cc1ccc(O)cc1)NC(=O)[C@@H](CCC(=O)O)NC(=O)[C@@H](NC(=O)[C@H](Cc1ccccc1)NC(=O)[C@H](C)NC(=O)C(C)(C)NC(=O)[C@H](CCC(N)=O)NC(=O)[C@H](C)NC(=O)[C@H](CCCCNC(=O)COCCOCCNC(=O)COCCOCCNC(=O)CC[C@H](NC(=O)CCCCCCCCCCCCCCCCCCC(=O)O)C(=O)O)NC(=O)[C@H](CCCCN)NC(=O)[C@H](CC(=O)O)NC(=O)[C@H](CC(C)C)NC(=O)[C@](C)(CC(C)C)NC(=O)[C@@H](NC(=O)[C@H](CO)NC(=O)[C@H](Cc1ccc(O)cc1)NC(=O)[C@H](CC(=O)O)NC(=O)[C@H](CO)NC(=O)[C@@H](NC(=O)[C@H](Cc1ccccc1)NC(=O)[C@@H](NC(=O)CNC(=O)[C@H](CCC(=O)O)NC(=O)C(C)(C)NC(=O)[C@H](N)Cc1ccc(O)cc1)[C@@H](C)O)[C@@H](C)O)[C@@H](C)CC)C(C)C)C(=O)N[C@@H](C)C(=O)NCC(=O)NCC(=O)N1CCC[C@H]1C(=O)N[C@@H](CO)C(=O)N[C@@H](CO)C(=O)NCC(=O)N[C@@H](C)C(=O)N1CCC[C@H]1C(=O)N1CCC[C@H]1C(=O)N1CCC[C@H]1C(=O)N[C@@H](CO)C(N)=O [Example 361] (H-[dY][Aib]EGTFTSDYSI[αMeL]LDKK([AEEA-AEEA-γGlu-C20 diacid])AQ[Aib]AFV[dE]YLIAGGPSSGAPPPS-NH2)		0.401 nM	0.269 µM	20.2%			0.955 nM	
